The assay addresses T1, mutated (E4Q, A5T) hMCHR1 receptor (Homo sapiens, UniProt Q99705, A5T/E4Q).
T1 construct: expressed in transfected cells
As to the kind of experiment: Radioligand binding assay for assessment of MCHR1 activity. The note with it: membranes from stably transfected HEK-293 cells; competition with [Phe13,[125I]Tyr19]-MCH, 90 min. As to the method: Radioligand Binding Assay for Assessment of MCHR1 Activity
Membranes from stably transfected HEK-293 cells expressing a mutated (E4Q, A5T) hMCHR1 receptor were prepared by dounce homogenization and differential centrifugation. Binding experiments were carried out with 0.5-1.0 ug of membrane protein incubated in a total of 0.2 ml in 25 mM HEPES (pH 7.4) with 10 mM MgCl2, 2 mM EGTA, and 0.1% BSA (Binding Buffer) for 90 min. For competition binding assays, reactions were carried out in the presence of with 0.06-0.1 nM [Phe^13, [^125I]Tyr^19]-MCH and increasing concentrations of unlabeled test molecules. Reactions were terminated by rapid vacuum filtration over 96 well-GFC UNIFILTER® plates pre-coated with 0.075 ml binding buffer containing 1% BSA, and washed 3 times with 0.4 ml of Phospho-buffered Saline (pH 7.4) containing 0.01% TX-100. Filters were dried, 0.05 ml microscint 20 was added to each well and radioactivity was subsequently quantified by scintillation counting on a TOPCOUNT® microplate scintillation counter (Packard). Inhibitory constants were determined by nonlinear least squares analysis using a four parameter logistic equation.

T1 sequence (Q99705 whole entry E4Q/A5T): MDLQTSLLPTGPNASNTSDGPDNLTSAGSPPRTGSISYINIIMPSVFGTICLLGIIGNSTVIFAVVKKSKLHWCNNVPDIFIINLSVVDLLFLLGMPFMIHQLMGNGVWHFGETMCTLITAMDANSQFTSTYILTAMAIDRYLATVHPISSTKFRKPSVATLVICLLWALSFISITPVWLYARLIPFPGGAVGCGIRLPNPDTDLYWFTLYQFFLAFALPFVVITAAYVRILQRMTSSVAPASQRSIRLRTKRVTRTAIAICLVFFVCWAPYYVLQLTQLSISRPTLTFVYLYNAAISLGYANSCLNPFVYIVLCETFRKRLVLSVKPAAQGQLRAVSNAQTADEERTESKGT

Compound `COc1cc(-n2nnc3cc(-c4ccc(Cl)cc4)sc3c2=O)ccc1OCC(C)(C)O` [Example 1, 6-(4-Chlorophenyl)-3-(4-(2-hydroxy-2-methylpropoxy)-3-methoxyphenyl)-thieno[3,2-d][1,2,3]triazin-4(3H)-one] came in with a Ki of 3 nM. As for `COc1cc(-n2nnc3cc(-c4ccc(Cl)cc4)sc3c2=O)ccc1OCC(C)=O` [Example 2, 6-(4-Chlorophenyl)-3-(3-methoxy-4-(2-oxopropoxy)phenyl)thieno[3,2-d][1,2,3]triazin-4(3H)-one], the figure is 5 nM; as for `COc1cc(-n2nnc3cc(-c4ccc(Cl)cc4)sc3c2=O)ccc1OCC(C)O` (stereo not drawn) [Example 3, 6-(4-Chlorophenyl)-3-(4-(2-hydroxypropoxy)-3-methoxyphenyl)thieno[3,2-d][1,2,3]triazin-4(3H)-one], 7 nM; as for `COc1cc(-n2nnc3cc(-c4ccc(Cl)cc4)sc3c2=O)ccc1OCCO` [Example 4, 6-(4-Chlorophenyl)-3-(4-(2-hydroxyethoxy)-3-methoxyphenyl)thieno[3,2-d][1,2,3]triazin-4(3H)-one], 5 nM.

`COc1cc(-n2nnc3cc(-c4ccc(Cl)cc4)sc3c2=O)ccc1OCC(O)C1CC1` (stereo not drawn) [Example 5, 6-(4-Chlorophenyl)-3-(4-(2-cyclopropyl-2-hydroxyethoxy)-3-methoxyphenyl)thieno[3,2-d][1,2,3]triazin-4(3H)-one] came in with a Ki of 10 nM. `COc1cc(-n2nnc3cc(-c4ccc(Cl)cc4)sc3c2=O)ccc1OC[C@H]1OC(C)(C)O[C@@H]1C` [Example 6] gave a Ki of 19 nM. With `COc1cc(-n2nnc3cc(-c4ccc(Cl)cc4)sc3c2=O)ccc1OC[C@@H](O)[C@@H](C)O` [Example 7, 6-(4-Chlorophenyl)-3-(4-((2R,3R)-2,3-dihydroxybutoxy)-3-methoxyphenyl)thieno[3,2-d][1,2,3]triazin-4(3H)-one], the Ki is 5 nM.

The compound `COc1cc(-n2nnc3cc(-c4ccc(Cl)cc4)sc3c2=O)ccc1OCC(O)C(F)(F)F` (stereo not drawn) [Example 8, 6-(4-Chlorophenyl)-3-(3-methoxy-4-(3,3,3-trifluoro-2-hydroxypropoxy)phenyl)thieno[3,2-d][1,2,3]triazin-4(3H)-one] showed a Ki of 8 nM. Against the preceding compound, the Ki is about 1.6-fold higher. As for `COc1cc(-n2ncc3cc(-c4ccc(Cl)cc4)sc3c2=O)ccc1OCC(C)(C)O` [Example 9, 2-(4-Chlorophenyl)-6-(4-(2-hydroxy-2-methylpropoxy)-3-methoxyphenyl)-thieno[2,3-d]pyridazin-7(6H)-one], the affinity, expressed as Ki, was 4 nM.

A word on the Ki: it is a dissociation constant, usually derived from enzyme kinetics or from competition with a known ligand. A low value points to higher affinity.

The record behind these values is patent US7973159B2, “Non-basic melanin concentrating hormone receptor-1 antagonists” (Bristol-Myers Squibb Company, priority 2007, dated 2011).
